ChEMBL document CHEMBL3046348, “Synthesis and antimicrobial screening of novel 2,6-ditertiarybutylpiperidin-4-ones” (2012)
≈ marks a conversion by molar mass, not a printed value.

How the values were obtained:
Assay type in all cases: functional
Trichoderma = test: Antifungal activity against Trichoderma sp after 72 to 96 hr by serial dilution method
Aspergillus niger = test: Antifungal activity against Aspergillus niger after 72 to 96 hr by serial dilution method
Klebsiella pneumoniae = test: Antibacterial activity against Klebsiella pneumoniae after 24 hr by serial dilution method
Escherichia coli = test: Antibacterial activity against Escherichia coli after 24 hr by serial dilution method
Bacillus subtilis = test: Antibacterial activity against Bacillus subtilis after 24 hr by serial dilution method

MIC (Trichoderma) | MIC (Aspergillus niger) | MIC (Klebsiella pneumoniae) | MIC (Escherichia coli) | MIC (Bacillus subtilis) | Structure (SMILES)
8 µg/mL (≈ 37.9 µM) | 8 µg/mL (≈ 37.9 µM) | 64 µg/mL (≈ 303 µM) | 64 µg/mL (≈ 303 µM) | 8 µg/mL (≈ 37.9 µM) | CC(C)(C)C1CC(=O)CC(C(C)(C)C)N1 (stereo not given)
16 µg/mL (≈ 71 µM) | 8 µg/mL (≈ 35.5 µM) | > 512 µg/mL | 256 µg/mL (≈ 1140 µM) | 16 µg/mL (≈ 71 µM) | CC1C(=O)CC(C(C)(C)C)NC1C(C)(C)C (stereo not given)
32 µg/mL (≈ 113 µM) | 8 µg/mL (≈ 28.2 µM) | 128 µg/mL (≈ 452 µM) | 64 µg/mL (≈ 226 µM) | 8 µg/mL (≈ 28.2 µM) | CCOC(=O)C1C(=O)CC(C(C)(C)C)NC1C(C)(C)C (stereo not given)
16 µg/mL (≈ 70.7 µM) | 64 µg/mL (≈ 283 µM) | > 512 µg/mL | 256 µg/mL (≈ 1130 µM) | 64 µg/mL (≈ 283 µM) | CC(C)(C)C1CC(=NO)CC(C(C)(C)C)N1 (stereo not given)
8 µg/mL (≈ 33.3 µM) | 8 µg/mL (≈ 33.3 µM) | 32 µg/mL (≈ 133 µM) | > 512 µg/mL | 16 µg/mL (≈ 66.6 µM) | CC1/C(=N/O)CC(C(C)(C)C)NC1C(C)(C)C (stereo not given)
8 µg/mL (≈ 26.8 µM) | 8 µg/mL (≈ 26.8 µM) | 64 µg/mL (≈ 214 µM) | 16 µg/mL (≈ 53.6 µM) | 64 µg/mL (≈ 214 µM) | CCOC(=O)C1/C(=N\O)CC(C(C)(C)C)NC1C(C)(C)C (stereo not given)
16 µg/mL (≈ 59.8 µM) | 8 µg/mL (≈ 29.9 µM) | 128 µg/mL (≈ 479 µM) | 64 µg/mL (≈ 239 µM) | 8 µg/mL (≈ 29.9 µM) | CC(C)(C)C1CC(=O)CC(C(C)(C)C)N1C(C)(C)C (stereo not given)
16 µg/mL (≈ 56.8 µM) | 8 µg/mL (≈ 28.4 µM) | 64 µg/mL (≈ 227 µM) | > 512 µg/mL | 16 µg/mL (≈ 56.8 µM) | CC1C(=O)CC(C(C)(C)C)N(C(C)(C)C)C1C(C)(C)C (stereo not given)
> 512 µg/mL | > 512 µg/mL | 256 µg/mL (≈ 754 µM) | 64 µg/mL (≈ 189 µM) | 16 µg/mL (≈ 47.1 µM) | CCOC(=O)C1C(=O)CC(C(C)(C)C)N(C(C)(C)C)C1C(C)(C)C (stereo not given)
> 512 µg/mL | > 512 µg/mL | 256 µg/mL (≈ 1070 µM) | > 512 µg/mL | 16 µg/mL (≈ 66.6 µM) | CC(C)(C)C1CC(=O)CC(C(C)(C)C)N1N=O (stereo not given)
8 µg/mL (≈ 31.4 µM) | 16 µg/mL (≈ 62.9 µM) | 512 µg/mL (≈ 2010 µM) | > 512 µg/mL | 16 µg/mL (≈ 62.9 µM) | CC1C(=O)CC(C(C)(C)C)N(N=O)C1C(C)(C)C (stereo not given)
32 µg/mL (≈ 102 µM) | 64 µg/mL (≈ 205 µM) | 32 µg/mL (≈ 102 µM) | 64 µg/mL (≈ 205 µM) | 64 µg/mL (≈ 205 µM) | CCOC(=O)C1C(=O)CC(C(C)(C)C)N(N=O)C1C(C)(C)C (stereo not given)
32 µg/mL (≈ 34.6 µM) | 32 µg/mL (≈ 34.6 µM) |  |  |  | C[C@@H]1[C@H](O)[C@@H](C)/C=C/C=C/C=C/C=C/C=C/C=C/C=C/[C@H](O[C@@H]2O[C@H](C)[C@@H](O)[C@H](N)[C@@H]2O)C[C@@H]2O[C@](O)(C[C@@H](O)C[C@@H](O)[C@H](O)CC[C@@H](O)C[C@@H](O)CC(=O)O[C@H]1C)C[C@H](O)[C@H]2C(=O)O [AMPHOTERICIN B]

Structure (SMILES) | MIC (Trichoderma) | MIC (Aspergillus niger) | MIC (Klebsiella pneumoniae) | MIC (Escherichia coli) | MIC (Bacillus subtilis)
CCn1cc(C(=O)O)c(=O)c2cc(F)c(N3CCNCC3)cc21 [NORFLOXACIN] |  |  | 16 µg/mL (≈ 50.1 µM) | 32 µg/mL (≈ 100 µM) | 16 µg/mL (≈ 50.1 µM)
